Measurements as given in ChEMBL document CHEMBL6114969, “Ultra-short lipopeptides containing d-amino acid exhibiting excellent stability and antibacterial activity against gram-positive bacteria” (Eur J Med Chem, 2025).
In brackets after ≈: the same amount, converted by molar mass. Where a SMILES comes first, the peptide text is derived from it. Bridges are numbered along the chain shown (N, C = ends). [ ]: non-standard residue; d: D form. The star is where a group is joined. X1 = CC[C@H](C)CCCCC(=O)*; Dab = NCC[C@H](N)C(=O)O

Tests used:
Staphylococcus aureus [1] = assay: Antibacterial activity against methicillin-resistant Staphylococcus aureus ATCC 33591 incubated for 18 to 24 hrs in presence of 2 mg/ml of trypsin by broth microdilution method; format: functional; conditions: time 18-24 hrs
[2] = Hemolytic activity in mouse Red blood cells incubated for 1 hr by absorbance based analysis; format: toxicity, cell-based; conditions: erythrocyte
Staphylococcus aureus [3] = assay: Antibacterial activity against methicillin-resistant Staphylococcus aureus ATCC 33591 assessed as fold change in MIC incubated for 18 to 24 hrs in presence of NaCl by broth microdilution method; format: functional; conditions: time 18-24 hrs
Staphylococcus aureus [4] = assay: Antibacterial activity against methicillin-resistant Staphylococcus aureus ATCC 33591 incubated for 18 to 24 hrs in presence of 1 mg/ml of trypsin by broth microdilution method; format: functional; conditions: time 18-24 hrs
Staphylococcus aureus [5] = assay: Antibacterial activity against methicillin-resistant Staphylococcus aureus ATCC 33591 incubated for 18 to 24 hrs in presence of 0.5 mg/ml of trypsin by broth microdilution method; format: functional; conditions: time 18-24 hrs
Staphylococcus aureus [6] = assay: Antibacterial activity against methicillin-resistant Staphylococcus aureus ATCC 33591 incubated for 18 to 24 hrs in presence of 0.5 mg/ml of pepsin by broth microdilution method; format: functional; conditions: time 18-24 hrs
[7] = Retention time of compound by RP-HPLC analysis; format: physicochemical
Staphylococcus aureus [8] = assay: Antibacterial activity against methicillin-resistant Staphylococcus aureus ATCC 33591 incubated for 18 to 24 hrs in presence of 1 mg/ml of pepsin by broth microdilution method; format: functional; conditions: time 18-24 hrs
Staphylococcus aureus [9] = assay: Antibacterial activity against methicillin-resistant Staphylococcus aureus ATCC 33591 assessed as fold change in MIC incubated for 18 to 24 hrs in presence of 10 percent FBS by broth microdilution method; format: functional; conditions: time 18-24 hrs
Staphylococcus aureus [10] = assay: Antibacterial activity against methicillin-resistant Staphylococcus aureus ATCC 33591 incubated for 18 to 24 hrs in presence of 1 mg/ml of chymotrypsin by broth microdilution method; format: functional; conditions: time 18-24 hrs
Staphylococcus aureus [11] = assay: Antibacterial activity against methicillin-resistant Staphylococcus aureus ATCC 33591 incubated for 18 to 24 hrs in presence of 2 mg/ml of pepsin by broth microdilution method; format: functional; conditions: time 18-24 hrs
Staphylococcus aureus [12] = assay: Antibacterial activity against Staphylococcus aureus ATCC 29213 incubated for 18 to 24 hrs by broth microdilution method; format: functional; conditions: time 18-24 hrs
Staphylococcus aureus [13] = assay: Antibacterial activity against methicillin-resistant Staphylococcus aureus ATCC 33591 incubated for 18 to 24 hrs by broth microdilution method; format: functional; conditions: time 18-24 hrs
Staphylococcus aureus [14] = assay: Antibacterial activity against methicillin-resistant Staphylococcus aureus ATCC 33591 assessed as fold change in MIC incubated for 18 to 24 hrs in presence of 10 percent mouse serum by broth microdilution method; format: functional; conditions: time 18-24 hrs
Staphylococcus aureus [15] = assay: Antibacterial activity against methicillin-resistant Staphylococcus aureus ATCC 33591 incubated for 18 to 24 hrs in presence of 2 mg/ml of chymotrypsin by broth microdilution method; format: functional; conditions: time 18-24 hrs
Staphylococcus aureus [16] = assay: Antibacterial activity against methicillin-resistant Staphylococcus aureus ATCC 33591 incubated for 18 to 24 hrs in presence of 0.5 mg/ml of chymotrypsin by broth microdilution method; format: functional; conditions: time 18-24 hrs
[17] = tested on: Staphylococcus epidermidis; assay: Antibacterial activity against Staphylococcus epidermidis ATCC 12228 incubated for 18 to 24 hrs by broth microdilution method; format: functional; conditions: time 18-24 hrs
Enterococcus faecalis = assay: Antibacterial activity against Enterococcus faecalis ATCC 29212 incubated for 18 to 24 hrs by broth microdilution method; format: functional; conditions: time 18-24 hrs
Staphylococcus aureus [18] = assay: Antibacterial activity against Staphylococcus aureus ATCC 25923 incubated for 18 to 24 hrs by broth microdilution method; format: functional; conditions: time 18-24 hrs
Staphylococcus aureus [19] = assay: Antibacterial activity against methicillin-resistant Staphylococcus aureus ATCC 33591 assessed as fold change in MIC incubated for 18 to 24 hrs in presence of MgCl2 by broth microdilution method; format: functional; conditions: time 18-24 hrs
Staphylococcus aureus [20] = assay: Antibacterial activity against ciprofloxacin-resistant methicillin-resistant Staphylococcus aureus ATCC 33591 incubated for 18 to 24 hrs; format: functional; conditions: time 18-24 hrs
Staphylococcus aureus [21] = assay: Antibacterial activity against drug-resistant Staphylococcus aureus ATCC 25923 incubated for 18 to 24 hrs; format: functional; conditions: time 18-24 hrs
Staphylococcus aureus [22] = assay: Antibacterial activity against ciprofloxacin-resistant Staphylococcus aureus ATCC 25923 incubated for 18 to 24 hrs; format: functional; conditions: time 18-24 hrs
Staphylococcus aureus [23] = assay: Antibacterial activity against gentamicin-resistant methicillin-resistant Staphylococcus aureus ATCC 33591 incubated for 18 to 24 hrs; format: functional; conditions: time 18-24 hrs
Staphylococcus aureus [24] = assay: Antibacterial activity against methicillin-resistant Staphylococcus aureus ATCC 33591 infected in Balb/c mouse model of skin wound infection assessed as crusted back wound at 10 mg/kg, ip administered thrice at 1, 24 and 48 hrs post-infection measured after 9 days relative to control; format: functional; conditions: time 9 day
Staphylococcus aureus [25] = assay: Antibacterial activity against drug-resistant methicillin-resistant Staphylococcus aureus ATCC 33591 incubated for 18 to 24 hrs; format: functional; conditions: time 18-24 hrs
Staphylococcus aureus [26] = assay: Antibacterial activity against gentamicin-resistant Staphylococcus aureus ATCC 25923 incubated for 18 to 24 hrs; format: functional; conditions: time 18-24 hrs
Staphylococcus aureus [27] = assay: Antibacterial activity against methicillin-resistant Staphylococcus aureus ATCC 33591 infected in Balb/c mouse model of skin wound infection assessed as wound heal at 10 mg/kg, ip administered thrice at 1, 24 and 48 hrs post-infection measured after 14 days relative to control; format: functional; conditions: time 14 day
Staphylococcus aureus [28] = assay: Antibacterial activity against polymyxin B-resistant methicillin-resistant Staphylococcus aureus ATCC 33591 incubated for 18 to 24 hrs; format: functional; conditions: time 18-24 hrs
Staphylococcus aureus [29] = assay: Antibacterial activity against polymyxin B-resistant Staphylococcus aureus ATCC 25923 incubated for 18 to 24 hrs; format: functional; conditions: time 18-24 hrs

Compound | MIC (Staphylococcus aureus [1]) | HC10 [2] | fold change (FC) (Staphylococcus aureus [3]) | MIC (Staphylococcus aureus [4]) | MIC (Staphylococcus aureus [5]) | MIC (Staphylococcus aureus [6]) | Retention_time [7] | MIC (Staphylococcus aureus [8]) | fold change (FC) (Staphylococcus aureus [9]) | MIC (Staphylococcus aureus [10]) | MIC (Staphylococcus aureus [11]) | MIC (Staphylococcus aureus [12]) | MIC (Staphylococcus aureus [13]) | fold change (FC) (Staphylococcus aureus [14]) | MIC (Staphylococcus aureus [15]) | MIC (Staphylococcus aureus [16]) | MIC [17] | MIC (Enterococcus faecalis) | MIC (Staphylococcus aureus [18]) | fold change (FC) (Staphylococcus aureus [19]) | also measured
CCCCCCCCCCCC(=O)N[C@H](CCCNC(=N)N)C(=O)N[C@H](CCCNC(=N)N)C(=O)N[C@@H](Cc1c[nH]c2ccccc12)C(=O)O | 64 µM | 128 µM | <3 | 32 µM | 32 µM | 4 µM | 18.527 min | 8 µM | 8 | 64 µM | 32 µM | 4 µM (≈ 2.8 µg/mL) | 4 µM (≈ 2.8 µg/mL) | 8 | 64 µM | 32 µM | 2 µM (≈ 1.4 µg/mL) | 8 µM (≈ 5.59 µg/mL) | 4 µM (≈ 2.8 µg/mL) | <3 | 
CC(C)CCCCC(=O)N[C@@H](CCN)C(=O)N[C@H](C(=O)N[C@@H](CCN)C(=O)N[C@H]1CCNC(=O)[C@H]([C@@H](C)O)NC(=O)[C@H](CCN)NC(=O)[C@H](CCN)NC(=O)[C@H](CC(C)C)NC(=O)[C@@H](Cc2ccccc2)NC(=O)[C@H](CCN)NC1=O)[C@@H](C)O.CC[C@H](C)CCCCC(=O)N[C@@H](CCN)C(=O)N[C@H](C(=O)N[C@@H](CCN)C(=O)N[C@H]1CCNC(=O)[C@H]([C@@H](C)O)NC(=O)[C@H](CCN)NC(=O)[C@H](CCN)NC(=O)[C@H](CC(C)C)NC(=O)[C@@H](Cc2ccccc2)NC(=O)[C@H](CCN)NC1=O)[C@@H](C)O (X1-[Dab]T[Dab][Dab][Dab][dF]L[Dab][Dab]T; lactam 4-C) |  |  |  |  |  |  |  |  |  |  |  | 4 µM | 16 µM |  |  |  | 2 µM | 128 µM | 4 µM |  | MIC (Staphylococcus aureus [20]): 4 µM; MIC (Staphylococcus aureus [21]): > 128 µM; MIC (Staphylococcus aureus [22]): 128 µM; MIC (Staphylococcus aureus [23]): 128 µM; Activity (Staphylococcus aureus [24]): 100%; MIC (Staphylococcus aureus [25]): 128 µM; MIC (Staphylococcus aureus [26]): > 128 µM; Activity (Staphylococcus aureus [27]): 100%; MIC (Staphylococcus aureus [28]): 2050 µM; MIC (Staphylococcus aureus [29]): 512 µM
CCCCCCCCCCCC(=O)N[C@@H](CCCNC(=N)N)C(=O)N[C@@H](CCCNC(=N)N)C(=O)N[C@H](Cc1c[nH]c2ccccc12)C(=O)O | > 128 µM | 128 µM | <3 | > 128 µM | > 128 µM | 16 µM | 18.476 min | 128 µM | 8 | > 128 µM | 128 µM | 4 µM (≈ 2.8 µg/mL) | 4 µM (≈ 2.8 µg/mL) | 4 | > 128 µM | > 128 µM | 2 µM (≈ 1.4 µg/mL) | 16 µM (≈ 11.2 µg/mL) | 4 µM (≈ 2.8 µg/mL) | <3 | 
CCCCCCCCCCCC(=O)N[C@H](CCCNC(=N)N)C(=O)N[C@@H](CCCNC(=N)N)C(=O)N[C@H](Cc1c[nH]c2ccccc12)C(=O)O | 32 µM | 128 µM | <3 | 16 µM | 8 µM | 4 µM | 19.092 min | 8 µM | 8 | 8 µM | 8 µM | 4 µM (≈ 2.8 µg/mL) | 4 µM (≈ 2.8 µg/mL) | 4 | 8 µM | 8 µM | 2 µM (≈ 1.4 µg/mL) | 16 µM (≈ 11.2 µg/mL) | 4 µM (≈ 2.8 µg/mL) | <3 | 
CCCCCCCCCCCC(=O)N[C@H](CCCNC(=N)N)C(=O)N[C@@H](CCCNC(=N)N)C(=O)N[C@@H](Cc1c[nH]c2ccccc12)C(=O)O | 128 µM | 64 µM | <3 | 64 µM | 64 µM | 8 µM | 19.259 min | 16 µM | 8 | 32 µM | 32 µM | 4 µM (≈ 2.8 µg/mL) | 4 µM (≈ 2.8 µg/mL) | 4 | 128 µM | 16 µM | 2 µM (≈ 1.4 µg/mL) | 8 µM (≈ 5.59 µg/mL) | 4 µM (≈ 2.8 µg/mL) | <3 | 
